How the values were obtained:
BC3A cells [1] = experiment: Photoinactivation of cell line, colony forming assay; type: cell-based, murine; conditions: for fluence for photoinactivation to below the detection levels: 15 nM
Description: (§1) Cell lines and culture conditions. WEHI-3 (murine myelocytic leukemia), L1210 (murine lymphocytic leukemia) and P815 (murine mastocytoma) cells were grown in RPMI 1640 (GibcoBRL, Grand Island, N.Y.) supplemented with 10% FBS. BC3A (murine leukemia) cells were grown in RPMI 1640 supplemented with 10 μM β-mercaptoethanol and 10% FBS; ABE-8.1/2 (murine pre-B lymphoma) cells were grown in DMEM (GibcoBRL)--10 μM β-mercaptoethanol--10% FBS. All cell lines were obtained from the American Type Culture Collection (Rockville, Md.) and were cultured at 37° C. in a humidified 5% CO2 -incubator. Prior to incubation with Pc 4, the cell lines were centrifuged and resuspended in phosphate buffered saline (PBS)--10% FBS, pH 7.4.
(§2) Photosensitization. Aliquots of a 1.87 mM Pc 4 (kindly provided by Dr. M. E. Kenney) stock solution in dimethyl sulfoxide were kept at -80° C. in autoclaved brown glass vials. Immediately prior to the photosensitization, Pc4 was thawed and diluted in dimethyl formamide to yield a 10 μM working solution. […] Pc 4 was used at 15 nM throughout the experiments.
(§3) BM and cell line samples, were incubated with 15 nM Pc 4 for two hours at 37° C. at cell concentrations of 1.5×10^7 cells/mL. Aliquots of 1.5 mL were transferred to 24-well plates; separate plates were used for each sample.
(§4) In a second set of experiments, the cells were incubated with 15 nM Pc 4 at cell concentrations of 1.5×10^6 cells/mL. Prior to photoirradiation, the samples were centrifuged and the supernatants were aspirated and set aside. The cell concentrations were adjusted to 1.5×10^7 cells/mL by adding back an appropriate volume of the Pc 4 containing aspirates.
(§5) Photoinactivation. The light source used was a filtered xenon short arc lamp (Versa-Light, Model UV-R6G, Medic Lightech, Ltd., Haifa, Israel). It was used to deliver red light (λ 600-700 nm) to the sensitized cells. After a 20 minute warm up period of the instrument, the distance from the light source to the bottom of the 24-well plate was adjusted to obtain a fluence rate of 26.6 mW/cm^2, as measured with a radiometer (Model IL 1350, International Light, Newburyport, Mass.). Samples were placed under the light source and were stirred during the irradiations. Before and after the irradiations, samples were kept in the dark.
(§6) Cell line samples were plated (in triplicate) in a semi-solid medium which consisted of DMEM--20% vol/vol serum (2/3 horse serum, 1/3 FBS)--3 mM glutamine--60 μM β-mercaptoethanol--0.3% wt/vol agar. The samples were incubated at 37° C. in a humidified 5% CO2 -incubator, and colonies consisting of more than 50 cells were counted after nine days.
(§7) Statistics. All assays were performed in triplicate unless mentioned otherwise. Data are expressed as mean values±standard error of the mean (SEM). Survival data are presented as surviving fractions relative to the surviving fractions of the untreated controls. The significance of the differences between experimental values was assessed by means of the Student's t-test.

L1210 cells [2] = experiment: as above; type: cell-based, murine; conditions: for fluence for photoinactivation to below the detection levels: 15 nM
Description: as §1, §2, §3, §4, §5, §6, §7

P815 cells [3] = experiment: as above; type: cell-based, murine
Description: as §1, §2, §3, §4, §5, §6, §7

WEHI-3 cells [4] = experiment: as above; type: cell-based, murine
Description: as §1, §2, §3, §4, §5, §6, §7

ABE-8.1/2 cells = experiment: Uptake of Pc 4, flow cytometry; type: cell-based, murine; conditions: for Pc 4 content / Pc 4 content per cell volume: 15 nM
Description: as §1
(§8) In mixing experiments, aliquots of Ly-5.2 BM and cell lines samples were mixed at different ratios. The combined cell concentration of each sample was 1.5×10^7 cells/mL. […] The cell lines were stained with anti-Ly-5.1^FITC. This treatment allowed clear resolution of the relatively small ABE-8.1/2 and BC3A cells from the bone marrow granulocytes. Immediately prior to the analyses, propidium iodide (PI, 0.5 μg/mL) was added to the samples to allow exclusion of dead cells (PI^+) from the analyses. The samples were analyzed in a FACStar^PLUS (BD) that was equipped with an argon ion laser tuned to 488 nm (200 mW) and a dye laser tuned to 610 nm (300 mW). FITC, PE, PI and Pc 4 fluorescence emissions were collected through 530/30, 575/42, 660/10, 670/10 nm band pass filters, respectively.
(§9) Cell size. Microscopic measurements of at least 20 cells were performed using a calibrated micrometer. To determine the cell size of the BM progenitor subsets, the c-kit^+,Sca-1^- and c-kit^+,Sca-1^+ fractions were sorted. The sorted cells were centrifuged and the pellets were resuspended in a 20 μl of HBBS. Samples were deposited onto microscope slides and covered with a cover slip. Cell diameters of 7.7±0.2 (c-kit^+,Sca-1^+), 8.4±0.3 (c-kit^+,Sca-1^-), 10.9±0.2 (BC3A), 11.1±0.2 (ABE-8.1/2), 13.0±0.3 (L1210), 14.2±0.3 (P815), 15.0±0.4 μm (WEHI-3) were obtained.

BC3A cells [5] = experiment: Uptake of Pc 4, flow cytometry; type: cell-based, murine
Description: as §1, §8, §9

L1210 cells [6] = experiment: Uptake of Pc 4, flow cytometry; type: cell-based, murine; conditions: for Pc 4 content / Pc 4 content per cell volume: 15 nM
Description: as §1, §8, §9

P815 cells [7] = experiment: Uptake of Pc 4, flow cytometry; type: cell-based, murine; conditions: for Pc 4 content / Pc 4 content per cell volume: 15 nM
Description: as §1, §8, §9

WEHI-3 cells [8] = experiment: Uptake of Pc 4, flow cytometry; type: cell-based, murine; conditions: for Pc 4 content / Pc 4 content per cell volume: 15 nM
Description: as §1, §8, §9

HL-60 = conditions: 15 nM Pc 4, 5×10^6 cells/mL, 8 J/cm^2; cited from earlier work
[9] = 1.5×10^6 cells/ml during incubation
[10] = 1.5×10^7 cells/ml during incubation
[11] = from 8.0×10^5 to 1.5×10^7 cells/mL
[12] = 15 nM, 1.5×10^6 cells/ml during incubation
[13] = 15 nM, 1.5×10^7 cells/ml during incubation

CN(C)CCC[Si](C)(C)O[Si]1(O)n2c3c4ccccc4c2N=C2N=C(N=c4c5ccccc5c(n41)=NC1=NC(=N3)c3ccccc31)c1ccccc12 (stereo not shown) [Pc 4, hydroxysiloxy-dimethylpropyl-N-dimethyl silicon phthalocyanine]
fluence for photoinactivation to below the detection levels (BC3A cells [1]; 1.5×10^6 cells/mL): 6 J/cm^2 | fluence for photoinactivation to below the detection levels (BC3A cells [1]; 1.5×10^7 cells/mL): 12 J/cm^2 | selectivity of photoinactivation towards the cell line (BC3A cells [1]; 1.5×10^6 cells/mL): approximately 5 log10 | selective photoinactivation (BC3A cells [1]; 1.5×10^7 cells/mL, 18 J/cm^2): > 6 log10 | fluence for photoinactivation to below the detection levels (L1210 cells [2]; 1.5×10^6 cells/mL): 6 J/cm^2 | fluence for photoinactivation to below the detection levels (L1210 cells [2]; 1.5×10^7 cells/mL): 18 J/cm^2 | selectivity of photoinactivation towards the cell line (L1210 cells [2]; 1.5×10^6 cells/mL): < 1 log10 | selective photoinactivation (L1210 cells [2]; 1.5×10^7 cells/mL, 18 J/cm^2): > 6 log10 | fluence for photoinactivation to below the detection levels (P815 cells [3]; 15 nM, 1.5×10^6 cells/mL): 6 J/cm^2 | selectivity of photoinactivation towards the cell line (P815 cells [3]; 1.5×10^6 cells/mL): ~3 logs | selective photoinactivation (P815 cells [3]; 1.5×10^7 cells/mL, 18 J/cm^2): > 3 log10 | viability at 0.015 µM (P815 cells [3]; Mus musculus, P815, light or radiation study, read-out: surviving fraction): 0.053 ± 2.6e-06% | fluence for photoinactivation to below the detection levels (WEHI-3 cells [4]; 15 nM, 1.5×10^6 cells/mL): 12 J/cm^2 | selectivity of photoinactivation towards the cell line (WEHI-3 cells [4]; 1.5×10^6 cells/mL): ~4 log10 | selective photoinactivation (WEHI-3 cells [4]; 1.5×10^7 cells/mL, 18 J/cm^2): 5 log10 | viability at 0.015 µM (WEHI-3 cells [4]; Mus musculus, WEHI-3, light or radiation study, read-out: surviving fraction): 0.00038% | Pc 4 content (ABE-8.1/2 cells; [9]): 218 ± 29.0 Mean fluorescence/cell | Pc 4 content per cell volume (ABE-8.1/2 cells; [9]): 0.30 Mean fluorescence/μm^3 | Pc 4 content (ABE-8.1/2 cells; [10]): 95 ± 7.6 Mean fluorescence/cell | Pc 4 content per cell volume (ABE-8.1/2 cells; [10]): 0.13 Mean fluorescence/μm^3 | reduction of Pc 4 uptake (ABE-8.1/2 cells; [11]): 2.5 fold | cell concentration at which uptake reached a plateau (BC3A cells [5]; 15 nM): 8.0×10^5 cells/mL | Pc 4 content (BC3A cells [5]; [12]): 137 ± 11.3 Mean fluorescence/cell | Pc 4 content per cell volume (BC3A cells [5]; [12]): 0.20 Mean fluorescence/μm^3 | Pc 4 content (BC3A cells [5]; [13]): 80 ± 5.5 Mean fluorescence/cell | Pc 4 content per cell volume (BC3A cells [5]; [13]): 0.12 Mean fluorescence/μm^3 | reduction of Pc 4 uptake (BC3A cells [5]; [11]): 1.6 fold | Pc 4 content (L1210 cells [6]; [9]): 291 ± 14.0 Mean fluorescence/cell | Pc 4 content per cell volume (L1210 cells [6]; [9]): 0.25 Mean fluorescence/μm^3 | Pc 4 content (L1210 cells [6]; [10]): 124 ± 4.2 Mean fluorescence/cell | Pc 4 content per cell volume (L1210 cells [6]; [10]): 0.11 Mean fluorescence/μm^3 | reduction of Pc 4 uptake (L1210 cells [6]; [11]): 2.5 fold | Pc 4 content (P815 cells [7]; [9]): 414 ± 21.5 Mean fluorescence/cell | Pc 4 content per cell volume (P815 cells [7]; [9]): 0.28 Mean fluorescence/μm^3 | Pc 4 content (P815 cells [7]; [10]): 152 ± 17.2 Mean fluorescence/cell | Pc 4 content per cell volume (P815 cells [7]; [10]): 0.10 Mean fluorescence/μm^3 | reduction of Pc 4 uptake (P815 cells [7]; [11]): 2.8 fold | Pc 4 content (WEHI-3 cells [8]; [9]): 296 ± 8.5 Mean fluorescence/cell | Pc 4 content per cell volume (WEHI-3 cells [8]; [9]): 0.17 Mean fluorescence/μm^3 | Pc 4 content (WEHI-3 cells [8]; [10]): 57 ± 4.7 Mean fluorescence/cell | Pc 4 content per cell volume (WEHI-3 cells [8]; [10]): 0.03 Mean fluorescence/μm^3 | reduction of Pc 4 uptake (WEHI-3 cells [8]; [11]): 5.1 fold | surviving fraction of human cells (HL-60): < 10^-5
